Consider seven compounds from ChEMBL document CHEMBL4052738, “Design and synthesis of 4-morpholino-6-(1,2,3,6-tetrahydropyridin-4-yl)-N-(3,4,5-trimethoxyphenyl)-1,3,5-triazin-2-amine analogues as tubulin polymerization inhibitors” (Bioorg Med Chem Lett, 2017).

The subject of one experiment is A549. Nature of the experiment: Antiproliferative activity against human A549 cells after 48 hrs by sulforhodamine B assay. It counts as functional, cell-based. The following applies: A549, 48 h.
Experiment [1] concerns HeLa. Nature of the experiment: Inhibition of microtubule polymerization in human HeLa cells assessed as cell rounding at 10 mM after 24 hrs by DAPI staining-based immunofluorescence assay.
Experiment [2] in a line: Inhibition of porcine tubulin polymerization after 1 hr in presence of GTP. Further details: species or system Sus scrofa.
The subject of experiment [3] is HeLa. Nature of the experiment: Antiproliferative activity against human HeLa cells after 48 hrs by sulforhodamine B assay. The class given is functional, cell-based.
A further experiment deals with MCF7. The experiment in a line: Antiproliferative activity against human MCF7 cells after 48 hrs by sulforhodamine B assay. The class given is functional, cell-based. The following applies: MCF7, 48 h.
Experiment [4] relates to HeLa. Nature of the experiment: Inhibition of tubulin polymerization in human HeLa cells assessed as increase in soluble tubulin fraction at 10 mM after 24 hrs by immunoblot analysis. It counts as cell-based.
In another experiment the test system is HepG2. The experiment in a line: Antiproliferative activity against human HepG2 cells after 48 hrs by sulforhodamine B assay. It counts as functional, cell-based. As to conditions: HepG2, 48 h.
In experiment [5] the test system is HeLa. Nature of the experiment: Inhibition of microtubule polymerization in human HeLa cells assessed as spindle fibres in nucleus at 10 mM after 24 hrs by DAPI staining-based immunofluorescence assay. The class given is cell-based.
Experiment [6] concerns HeLa. The experiment in a line: Induction of apoptosis in human HeLa cells assessed as increase in cyclin-B1 levels at 10 mM after 24 hrs by immunoblot analysis. The class given is functional, cell-based.
For experiment [7], the system named is HeLa. Nature of the experiment: Induction of apoptosis in human HeLa cells assessed as increase in cyclin-B1 levels at 1 mM after 24 hrs by immunoblot analysis. It counts as functional, cell-based.
Experiment [8] relates to HeLa. The experiment in a line: Inhibition of tubulin polymerization in human HeLa cells assessed as increase in soluble tubulin fraction at 1 mM after 24 hrs by immunoblot analysis. It counts as cell-based.
Experiment [9] deals with HeLa. The experiment in a line: Inhibition of microtubule polymerization in human HeLa cells assessed as cell rounding at 1 mM after 24 hrs by DAPI staining-based immunofluorescence assay.
The subject of experiment [10] is HeLa. The experiment in a line: Inhibition of microtubule polymerization in human HeLa cells assessed as spindle fibres in nucleus at 1 mM after 24 hrs by DAPI staining-based immunofluorescence assay. It counts as cell-based.

Structures are written as SMILES. Active and inactive are the calls of the source. The rule behind the calls is not given here.

On to `COc1cc(Nc2nc(C3=CCN(C(=O)c4ccc([N+](=O)[O-])o4)CC3)nc(N3CCOCC3)n2)cc(OC)c1OC`, for which the half-inhibitory concentration (IC50) with A549 was found to be 10.5 µM; in [2], 5200 nM; in the experiment with HeLa [3], 12.3 µM; with MCF7 it was 11.7 µM; in the experiment on HepG2 it was 9.6 µM. Also, the inhibition result with HeLa [1], with HeLa [4] and with HeLa [5] was “Active” throughout. In the experiment with HeLa [6], the result was Active.

Consider `COC(=O)Nc1nc2cc(C(=O)c3cccs3)ccc2[nH]1` [NOCODAZOLE], for which the result with HeLa [7] was Active. The inhibition entry in the experiment on HeLa [8], with HeLa [9] and in the experiment with HeLa [10] was “Active” throughout. The half-inhibitory concentration (IC50) stood at 800 nM in [2], 1.6 µM in the experiment on HeLa [3], 1.5 µM with MCF7 and 1.1 µM in the experiment on HepG2.

As for `COc1cc(Nc2nc(C3=CCN(C(C)=O)CC3)nc(N3CCOCC3)n2)cc(OC)c1OC`, the 50% inhibitory concentration (IC50) came to 49 µM with A549, 45.7 µM in the experiment on HeLa [3], 40.2 µM in the experiment on MCF7 and 50.6 µM in the experiment with HepG2.

Regarding `COc1cc(Nc2nc(C3=CCN(S(=O)(=O)c4ccc(Br)cc4)CC3)nc(N3CCOCC3)n2)cc(OC)c1OC`, the IC50 was found to be 43.6 µM in the experiment with A549, 30.6 µM in the experiment with HeLa [3], 32.5 µM in the experiment on MCF7 and 40.4 µM in the experiment with HepG2.

As to `COc1cc(Nc2nc(C3=CCN(S(=O)(=O)c4ccc(C(C)=O)cc4)CC3)nc(N3CCOCC3)n2)cc(OC)c1OC`, the 50% inhibitory concentration (IC50) with A549 came out at 32 µM; in the experiment on HeLa [3] it was 45 µM; in the experiment on MCF7, 32.1 µM; in the experiment on HepG2, 36.5 µM.

Turning to `COc1cc(Nc2nc(C3=CCN(C(=O)N4CCCCC4)CC3)nc(N3CCOCC3)n2)cc(OC)c1OC`, the IC50 in the experiment with A549 came out at 30.8 µM; in the experiment with HeLa [3], 34 µM; in the experiment with MCF7 it was 40.5 µM; in the experiment on HepG2, 41.7 µM.

Turning to `COc1cc(Nc2nc(C3=CCN(C(=O)c4ccco4)CC3)nc(N3CCOCC3)n2)cc(OC)c1OC`, the half-maximal inhibitory concentration (IC50) is 51 µM in the experiment with A549, 45 µM in the experiment with HeLa [3], 32 µM in the experiment on MCF7 and 37.1 µM in the experiment with HepG2.
